Assays:
[1] = target: Vascular endothelial growth factor receptor 2 (Homo sapiens, UniProt P35968); assay: Inhibition of human N-terminal GST tagged VEGFR-2 expressed in baculovirus infected Sf9 cells using poly (Glu,Tyr) 4:1 as substrate in presence of ATP by Kinase-Glo luminescence assay
[2] = target: Serine/threonine-protein kinase B-raf (Homo sapiens, UniProt P15056); assay: Inhibition of human wild type BRAF by Kinase-Glo luminescence assay
[3] = target: Fibroblast growth factor receptor 1 (Homo sapiens, UniProt P11362); assay: Inhibition of FGFR1 (unknown origin)
[4] = target: Angiopoietin-1 receptor (Homo sapiens, UniProt Q02763); assay: Inhibition of TIE2 (unknown origin)
[5] = target: RAF proto-oncogene serine/threonine-protein kinase (Homo sapiens, UniProt P04049); assay: Inhibition of RAF1 (unknown origin)
[6] = tested on: CCRF-CEM; assay: Growth inhibition of human CCRF-CEM cells at 10 uM incubated for 48 hrs by sulforhodamine B assay relative to control; format: functional; conditions: read-out: GI
[7] = tested on: K562; assay: Growth inhibition of human K562 cells at 10 uM incubated for 48 hrs by sulforhodamine B assay relative to control; format: functional; conditions: K562, 48 h, read-out: GI
[8] = tested on: MOLT-4; assay: Growth inhibition of human MOLT4 cells at 10 uM incubated for 48 hrs by sulforhodamine B assay relative to control; format: functional; conditions: MOLT-4, 48 h, read-out: GI
[9] = tested on: RPMI-8226; assay: Growth inhibition of human RPMI8226 cells at 10 uM incubated for 48 hrs by sulforhodamine B assay relative to control; format: functional; conditions: RPMI-8226, 48 h, read-out: GI
[10] = tested on: SR; assay: Growth inhibition of human SR cells at 10 uM incubated for 48 hrs by sulforhodamine B assay relative to control; format: functional; conditions: read-out: GI
[11] = tested on: EKVX; assay: Growth inhibition of human EKVX cells at 10 uM incubated for 48 hrs by sulforhodamine B assay relative to control; format: functional; conditions: read-out: GI
[12] = tested on: HOP-62; assay: Growth inhibition of human HOP62 cells at 10 uM incubated for 48 hrs by sulforhodamine B assay relative to control; format: functional; conditions: HOP-62, 48 h, read-out: GI
[13] = tested on: NCI-H226; assay: Growth inhibition of human NCI-H226 cells at 10 uM incubated for 48 hrs by sulforhodamine B assay relative to control; format: functional; conditions: NCI-H226, 48 h, read-out: GI
[14] = tested on: NCI-H23; assay: Growth inhibition of human NCI-H23 cells at 10 uM incubated for 48 hrs by sulforhodamine B assay relative to control; format: functional; conditions: NCI-H23, 48 h, read-out: GI
[15] = tested on: NCI-H522; assay: Growth inhibition of human NCI-H522 cells at 10 uM incubated for 48 hrs by sulforhodamine B assay relative to control; format: functional; conditions: NCI-H522, 48 h, read-out: GI
[16] = tested on: HCT-116; assay: Growth inhibition of human HCT116 cells at 10 uM incubated for 48 hrs by sulforhodamine B assay relative to control; format: functional; conditions: HCT-116, 48 h, read-out: GI
[17] = tested on: U-251; assay: Growth inhibition of human U251 cells at 10 uM incubated for 48 hrs by sulforhodamine B assay relative to control; format: functional; conditions: U-251, 48 h, read-out: GI
[18] = tested on: LOX IMVI; assay: Growth inhibition of human LOXIMVI cells at 10 uM incubated for 48 hrs by sulforhodamine B assay relative to control; format: functional; conditions: read-out: GI
[19] = tested on: Malme-3M; assay: Growth inhibition of human MALME-3M cells at 10 uM incubated for 48 hrs by sulforhodamine B assay relative to control; format: functional; conditions: read-out: GI
[20] = tested on: MDA-MB-435; assay: Growth inhibition of human MDA-MB-435 cells at 10 uM incubated for 48 hrs by sulforhodamine B assay relative to control; format: functional; conditions: MDA-MB-435, 48 h, read-out: GI
[21] = tested on: SK-MEL-2; assay: Growth inhibition of human SK-MEL-2 cells at 10 uM incubated for 48 hrs by sulforhodamine B assay relative to control; format: functional; conditions: SK-MEL-2, 48 h, read-out: GI
[22] = tested on: SK-MEL-28; assay: Growth inhibition of human SK-MEL-28 cells at 10 uM incubated for 48 hrs by sulforhodamine B assay relative to control; format: functional; conditions: SK-MEL-28, 48 h, read-out: GI
[23] = tested on: SK-MEL-5; assay: Growth inhibition of human SK-MEL-5 cells at 10 uM incubated for 48 hrs by sulforhodamine B assay relative to control; format: functional; conditions: SK-MEL-5, 48 h, read-out: GI
[24] = tested on: OVCAR-3; assay: Growth inhibition of human OVCAR3 cells at 10 uM incubated for 48 hrs by sulforhodamine B assay relative to control; format: functional; conditions: OVCAR-3, 48 h, read-out: GI
[25] = tested on: OVCAR-8; assay: Growth inhibition of human OVCAR8 cells at 10 uM incubated for 48 hrs by sulforhodamine B assay relative to control; format: functional; conditions: OVCAR-8, 48 h, read-out: GI
[26] = tested on: NCI/ADR-RES; assay: Growth inhibition of human NCI/ADR-RES cells at 10 uM incubated for 48 hrs by sulforhodamine B assay relative to control; format: functional; conditions: read-out: GI
[27] = tested on: 786-0; assay: Growth inhibition of human 786-0 cells at 10 uM incubated for 48 hrs by sulforhodamine B assay relative to control; format: functional; conditions: 786-0, 48 h, read-out: GI
[28] = tested on: CAKI-1; assay: Growth inhibition of human Caki1 cells at 10 uM incubated for 48 hrs by sulforhodamine B assay relative to control; format: functional; conditions: CAKI-1, 48 h, read-out: GI
[29] = tested on: SN12C; assay: Growth inhibition of human SN12C cells at 10 uM incubated for 48 hrs by sulforhodamine B assay relative to control; format: functional; conditions: read-out: GI
[30] = tested on: UO-31; assay: Growth inhibition of human UO31 cells at 10 uM incubated for 48 hrs by sulforhodamine B assay relative to control; format: functional; conditions: UO-31, 48 h, read-out: GI
[31] = tested on: PC-3; assay: Growth inhibition of human PC3 cells at 10 uM incubated for 48 hrs by sulforhodamine B assay relative to control; format: functional; conditions: PC-3, 48 h, read-out: GI
[32] = tested on: DU-145; assay: Growth inhibition of human DU145 cells at 10 uM incubated for 48 hrs by sulforhodamine B assay relative to control; format: functional; conditions: DU-145, 48 h, read-out: GI
[33] = tested on: MCF7; assay: Growth inhibition of human MCF7 cells at 10 uM incubated for 48 hrs by sulforhodamine B assay relative to control; format: functional; conditions: MCF7, 48 h, read-out: GI
[34] = tested on: MDA-MB-231; assay: Growth inhibition of human MDA-MB-231 cells at 10 uM incubated for 48 hrs by sulforhodamine B assay relative to control; format: functional; conditions: MDA-MB-231, 48 h, read-out: GI
[35] = tested on: BT-549; assay: Growth inhibition of human BT549 cells at 10 uM incubated for 48 hrs by sulforhodamine B assay relative to control; format: functional; conditions: BT-549, 48 h, read-out: GI
[36] = tested on: T47D; assay: Growth inhibition of human T47D cells at 10 uM incubated for 48 hrs by sulforhodamine B assay relative to control; format: functional; conditions: read-out: GI
[37] = tested on: T47D; assay: Cytotoxicity against human T47D cells expressing wild type BRAF measured after 48 hrs by sulforhodamine B assay; format: functional, cell-based

Fibroblast growth factor receptor 1, sequence (P11362 whole entry): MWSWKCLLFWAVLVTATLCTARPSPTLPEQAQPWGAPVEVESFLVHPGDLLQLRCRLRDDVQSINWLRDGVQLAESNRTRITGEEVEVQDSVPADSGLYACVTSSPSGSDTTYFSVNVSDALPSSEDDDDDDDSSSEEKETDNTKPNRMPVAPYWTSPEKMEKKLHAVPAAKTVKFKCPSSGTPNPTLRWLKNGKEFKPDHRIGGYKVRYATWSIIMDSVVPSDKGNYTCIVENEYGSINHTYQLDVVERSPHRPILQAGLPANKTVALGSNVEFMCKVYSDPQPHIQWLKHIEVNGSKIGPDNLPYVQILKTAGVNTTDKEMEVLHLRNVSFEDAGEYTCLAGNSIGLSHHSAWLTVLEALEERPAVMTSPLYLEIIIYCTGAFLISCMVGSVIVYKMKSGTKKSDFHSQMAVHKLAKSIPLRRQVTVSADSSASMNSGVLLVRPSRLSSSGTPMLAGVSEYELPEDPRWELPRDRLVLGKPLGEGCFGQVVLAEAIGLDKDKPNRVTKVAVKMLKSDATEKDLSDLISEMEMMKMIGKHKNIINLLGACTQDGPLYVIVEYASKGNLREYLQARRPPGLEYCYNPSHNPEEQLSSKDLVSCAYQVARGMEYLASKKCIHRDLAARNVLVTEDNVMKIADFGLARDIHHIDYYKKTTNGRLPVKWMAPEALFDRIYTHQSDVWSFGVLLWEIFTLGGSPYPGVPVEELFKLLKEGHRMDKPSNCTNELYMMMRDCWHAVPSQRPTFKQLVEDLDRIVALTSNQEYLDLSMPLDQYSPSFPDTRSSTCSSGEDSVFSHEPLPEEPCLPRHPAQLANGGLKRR
Serine/threonine-protein kinase B-raf, sequence (P15056 whole entry): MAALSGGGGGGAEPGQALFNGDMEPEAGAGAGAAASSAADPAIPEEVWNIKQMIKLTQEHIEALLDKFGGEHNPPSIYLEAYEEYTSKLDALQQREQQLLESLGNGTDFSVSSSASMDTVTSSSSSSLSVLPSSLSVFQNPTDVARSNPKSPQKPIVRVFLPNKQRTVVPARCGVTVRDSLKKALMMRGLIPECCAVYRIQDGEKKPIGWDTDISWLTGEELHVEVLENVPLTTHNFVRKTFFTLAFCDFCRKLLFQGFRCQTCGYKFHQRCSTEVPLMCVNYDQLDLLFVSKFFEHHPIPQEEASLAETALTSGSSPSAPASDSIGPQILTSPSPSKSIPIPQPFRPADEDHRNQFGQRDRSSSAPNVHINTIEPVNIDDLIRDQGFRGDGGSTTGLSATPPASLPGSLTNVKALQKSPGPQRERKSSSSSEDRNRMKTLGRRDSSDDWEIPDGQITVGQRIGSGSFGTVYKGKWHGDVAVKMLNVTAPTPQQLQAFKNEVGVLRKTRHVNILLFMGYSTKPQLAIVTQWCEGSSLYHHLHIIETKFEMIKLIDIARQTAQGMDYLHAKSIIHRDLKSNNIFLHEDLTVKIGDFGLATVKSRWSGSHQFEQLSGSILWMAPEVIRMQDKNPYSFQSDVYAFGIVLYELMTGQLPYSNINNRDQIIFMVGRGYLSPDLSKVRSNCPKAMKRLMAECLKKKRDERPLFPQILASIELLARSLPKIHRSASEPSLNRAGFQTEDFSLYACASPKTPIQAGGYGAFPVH
RAF proto-oncogene serine/threonine-protein kinase, sequence (P04049 whole entry): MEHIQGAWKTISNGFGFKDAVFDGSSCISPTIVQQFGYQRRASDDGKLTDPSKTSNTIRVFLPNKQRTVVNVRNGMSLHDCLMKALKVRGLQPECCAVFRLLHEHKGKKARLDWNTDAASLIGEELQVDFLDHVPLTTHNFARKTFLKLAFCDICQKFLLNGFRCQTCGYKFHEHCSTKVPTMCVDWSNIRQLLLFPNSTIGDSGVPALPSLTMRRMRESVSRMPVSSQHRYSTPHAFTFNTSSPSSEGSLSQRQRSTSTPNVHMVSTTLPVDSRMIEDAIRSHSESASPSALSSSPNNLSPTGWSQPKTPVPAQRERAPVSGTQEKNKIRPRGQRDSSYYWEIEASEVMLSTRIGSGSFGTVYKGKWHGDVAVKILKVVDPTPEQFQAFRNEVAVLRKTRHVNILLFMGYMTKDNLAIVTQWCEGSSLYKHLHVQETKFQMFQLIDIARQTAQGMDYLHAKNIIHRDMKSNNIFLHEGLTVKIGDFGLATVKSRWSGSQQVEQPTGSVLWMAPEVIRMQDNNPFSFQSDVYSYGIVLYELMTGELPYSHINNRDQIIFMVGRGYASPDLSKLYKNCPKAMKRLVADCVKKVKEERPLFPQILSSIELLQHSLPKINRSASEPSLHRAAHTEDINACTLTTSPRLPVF
Angiopoietin-1 receptor, sequence (Q02763 whole entry): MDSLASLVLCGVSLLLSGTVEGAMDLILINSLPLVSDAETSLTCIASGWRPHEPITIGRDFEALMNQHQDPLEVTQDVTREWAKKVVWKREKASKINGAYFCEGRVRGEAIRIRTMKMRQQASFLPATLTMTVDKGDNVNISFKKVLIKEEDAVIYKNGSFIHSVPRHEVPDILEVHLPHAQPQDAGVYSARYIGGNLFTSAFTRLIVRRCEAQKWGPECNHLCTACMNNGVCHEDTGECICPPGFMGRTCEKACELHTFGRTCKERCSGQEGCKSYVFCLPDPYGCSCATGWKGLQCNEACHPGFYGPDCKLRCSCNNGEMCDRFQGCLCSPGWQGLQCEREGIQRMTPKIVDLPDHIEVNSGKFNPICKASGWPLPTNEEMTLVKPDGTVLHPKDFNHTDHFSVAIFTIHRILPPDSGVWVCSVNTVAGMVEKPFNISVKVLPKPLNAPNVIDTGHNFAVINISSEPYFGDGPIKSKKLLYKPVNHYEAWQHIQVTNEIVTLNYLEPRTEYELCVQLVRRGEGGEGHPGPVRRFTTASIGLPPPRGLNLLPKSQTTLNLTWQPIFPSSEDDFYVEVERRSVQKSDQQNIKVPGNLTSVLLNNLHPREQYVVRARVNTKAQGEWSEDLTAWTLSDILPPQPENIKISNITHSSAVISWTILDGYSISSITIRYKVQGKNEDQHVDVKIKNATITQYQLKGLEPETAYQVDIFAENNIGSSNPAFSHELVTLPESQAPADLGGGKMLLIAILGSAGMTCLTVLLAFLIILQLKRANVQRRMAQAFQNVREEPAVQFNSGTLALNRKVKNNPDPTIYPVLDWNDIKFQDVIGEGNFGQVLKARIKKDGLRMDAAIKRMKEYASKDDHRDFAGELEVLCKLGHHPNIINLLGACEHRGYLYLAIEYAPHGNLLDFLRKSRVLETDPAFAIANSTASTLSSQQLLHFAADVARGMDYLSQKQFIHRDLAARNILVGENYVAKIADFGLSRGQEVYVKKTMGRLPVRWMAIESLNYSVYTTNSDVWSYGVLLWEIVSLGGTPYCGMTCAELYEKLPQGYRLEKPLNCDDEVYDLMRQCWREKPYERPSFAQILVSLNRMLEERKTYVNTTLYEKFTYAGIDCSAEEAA
Vascular endothelial growth factor receptor 2, sequence (P35968 whole entry): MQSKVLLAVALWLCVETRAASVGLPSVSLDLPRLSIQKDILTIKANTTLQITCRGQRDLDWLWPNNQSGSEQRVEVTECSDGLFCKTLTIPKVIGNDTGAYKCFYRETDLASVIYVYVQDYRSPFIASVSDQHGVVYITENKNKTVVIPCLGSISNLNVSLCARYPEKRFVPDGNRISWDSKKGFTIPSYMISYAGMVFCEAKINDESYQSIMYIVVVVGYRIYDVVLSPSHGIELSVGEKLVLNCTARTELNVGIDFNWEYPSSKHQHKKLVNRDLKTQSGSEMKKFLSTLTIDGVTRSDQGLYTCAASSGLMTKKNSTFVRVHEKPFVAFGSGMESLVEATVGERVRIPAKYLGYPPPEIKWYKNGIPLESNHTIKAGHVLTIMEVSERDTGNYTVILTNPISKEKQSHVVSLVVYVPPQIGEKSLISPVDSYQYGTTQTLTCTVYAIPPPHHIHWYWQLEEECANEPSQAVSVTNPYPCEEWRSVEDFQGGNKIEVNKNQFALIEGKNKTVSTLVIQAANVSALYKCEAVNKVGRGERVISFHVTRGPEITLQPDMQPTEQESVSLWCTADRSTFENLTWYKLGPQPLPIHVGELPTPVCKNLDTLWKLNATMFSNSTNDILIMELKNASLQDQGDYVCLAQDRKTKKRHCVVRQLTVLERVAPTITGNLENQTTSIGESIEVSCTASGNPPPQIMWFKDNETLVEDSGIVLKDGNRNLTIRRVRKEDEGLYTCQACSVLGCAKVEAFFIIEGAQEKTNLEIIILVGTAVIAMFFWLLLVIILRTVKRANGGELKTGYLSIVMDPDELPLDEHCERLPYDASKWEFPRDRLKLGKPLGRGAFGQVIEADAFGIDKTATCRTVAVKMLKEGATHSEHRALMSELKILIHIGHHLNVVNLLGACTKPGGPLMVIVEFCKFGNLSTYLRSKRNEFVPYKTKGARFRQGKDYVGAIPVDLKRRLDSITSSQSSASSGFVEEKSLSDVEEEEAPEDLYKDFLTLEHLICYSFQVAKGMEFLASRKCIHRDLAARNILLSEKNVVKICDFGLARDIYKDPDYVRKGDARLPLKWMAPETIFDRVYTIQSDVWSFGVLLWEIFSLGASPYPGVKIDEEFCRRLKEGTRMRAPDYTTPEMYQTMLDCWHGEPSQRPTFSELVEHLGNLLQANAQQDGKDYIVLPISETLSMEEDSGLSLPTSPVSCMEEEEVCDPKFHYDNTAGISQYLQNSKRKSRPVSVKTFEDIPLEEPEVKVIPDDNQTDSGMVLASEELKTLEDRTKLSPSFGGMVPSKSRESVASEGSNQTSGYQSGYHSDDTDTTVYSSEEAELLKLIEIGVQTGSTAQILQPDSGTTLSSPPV

O=C(CSc1nccc(Nc2ccc(N3CCOCC3)cc2)n1)c1ccc(F)cc1
IC50 [1]: 260 nM | IC50 [2]: 110 nM | IC50 [3]: 130 nM | IC50 [4]: 480 nM | IC50 [5]: 130 nM | inhibition of growth at 10 µM [6]: 19% | inhibition of growth at 10 µM [7]: 28% | inhibition of growth at 10 µM [8]: 25% | inhibition of growth at 10 µM [9]: 21% | inhibition of growth at 10 µM [10]: 18% | inhibition of growth at 10 µM [11]: 23% | inhibition of growth at 10 µM [12]: 69% | inhibition of growth at 10 µM [13]: 45% | inhibition of growth at 10 µM [14]: 21% | inhibition of growth at 10 µM [15]: 49% | inhibition of growth at 10 µM [16]: 32% | inhibition of growth at 10 µM [17]: 16% | inhibition of growth at 10 µM [18]: 15% | inhibition of growth at 10 µM [19]: 29% | inhibition of growth at 10 µM [20]: 16% | inhibition of growth at 10 µM [21]: 10% | inhibition of growth at 10 µM [22]: 19% | inhibition of growth at 10 µM [23]: 37% | inhibition of growth at 10 µM [24]: 18% | inhibition of growth at 10 µM [25]: 62% | inhibition of growth at 10 µM [26]: 26% | inhibition of growth at 10 µM [27]: 13% | inhibition of growth at 10 µM [28]: 41% | inhibition of growth at 10 µM [29]: 20% | inhibition of growth at 10 µM [30]: 27% | inhibition of growth at 10 µM [31]: 27% | inhibition of growth at 10 µM [32]: 16% | inhibition of growth at 10 µM [33]: 31% | inhibition of growth at 10 µM [34]: 22% | inhibition of growth at 10 µM [35]: 31% | inhibition of growth at 10 µM [36]: 34% | IC50 [37]: 14.3 µM

CCOC(=O)c1ccc(Nc2ccnc(SCC(=O)c3ccc(C#N)cc3)n2)cc1
IC50 [1]: 170 nM | IC50 [2]: 150 nM | IC50 [3]: 280 nM | IC50 [4]: 1390 nM | IC50 [5]: 410 nM | inhibition of growth at 10 µM [6]: 82% | inhibition of growth at 10 µM [7]: 49% | inhibition of growth at 10 µM [8]: 84% | inhibition of growth at 10 µM [9]: 80% | inhibition of growth at 10 µM [10]: 46% | inhibition of growth at 10 µM [11]: 26% | inhibition of growth at 10 µM [12]: 37% | inhibition of growth at 10 µM [13]: 38% | inhibition of growth at 10 µM [14]: 20% | inhibition of growth at 10 µM [15]: 73% | inhibition of growth at 10 µM [16]: 28% | inhibition of growth at 10 µM [17]: 15% | inhibition of growth at 10 µM [18]: 20% | inhibition of growth at 10 µM [19]: 19% | inhibition of growth at 10 µM [20]: 32% | inhibition of growth at 10 µM [21]: 29% | inhibition of growth at 10 µM [22]: 19% | inhibition of growth at 10 µM [23]: 62% | inhibition of growth at 10 µM [24]: 21% | inhibition of growth at 10 µM [25]: 77% | inhibition of growth at 10 µM [26]: 58% | inhibition of growth at 10 µM [27]: 22% | inhibition of growth at 10 µM [28]: 43% | inhibition of growth at 10 µM [29]: 26% | inhibition of growth at 10 µM [30]: 52% | inhibition of growth at 10 µM [31]: 60% | inhibition of growth at 10 µM [32]: 21% | inhibition of growth at 10 µM [33]: 33% | inhibition of growth at 10 µM [34]: 19% | inhibition of growth at 10 µM [35]: 50% | inhibition of growth at 10 µM [36]: 90% | IC50 [37]: 2.18 µM

From ChEMBL document CHEMBL4396916, “Novel potent substituted 4-amino-2-thiopyrimidines as dual VEGFR-2 and BRAF kinase inhibitors” (Eur J Med Chem, 2019)
